Among the data in patent US7368467B2, “Ion channel modulators” (Wyeth, priority 2004, dated 2008) are IC50 values, retold here.

The subject of assay [1] is calcium channels (e.g., Cav2.2 subfamily). In words: Oocyte assay, calcium channel modulation in Xenopus oocyte heterologous expression system. The format is cell-based. Particulars: calcium channel (e.g., Cav2.2 subfamily). Here is the method:
Representative compounds of the formulae herein are screened for activity against calcium channel targets in an assay essentially as described in Neuron January 1997, 18(11): 153-166, Lin et. al.; J. Neurosci. Jul. 1, 2000, 20(13):4768-75, J. Pan and D. Lipsombe; and J. Neurosci., Aug. 15, 2001, 21(16):5944-5951, W. Xu and D. Lipscombe, using Xenopus oocyte heterologeous expression system. The assay is performed on various calcium channels (e.g., Cav2.2subfamily) whereby the modulation of the calcium channel is measured for each compound. Table 2 contains IC50's for representative compounds disclosed in the invention.

The test system of assay [2] is calcium channel (e.g., L-type, N-type, etc.). In words: HEK assay, whole-cell voltage clamp of calcium channel currents in transiently transfected HEK-293T/17 cells. The format is cell-based. The note with it: whole-cell patch clamp, holding potential −100 mV, steps to about +10 mV. Here is the method: HEK-293T/17 cells are transiently transfected in a similar manner as described in FuGENE 6 Package Insert Version 7, April 2002, Roche Applied Science, Indianapolis, Ind. The cells are plated at 2.5×10^5 cells in 2 mL in a 6-well plate in incubator for one night and achieve a 30˜40% confluence. In a small sterile tube, add sufficient serum-free medium as diluent for FuGENE Transfection Reagent (Roche Applied Science, Indianapolis, Ind.), to a total volume of 100 μL. Add 3 μL of FuGENE 6 Reagent directly into this medium. The mixture is tapped gently to mix. 2 μg of DNA solution (0.8-2.0 μg/μL) is added to the prediluted FuGENE 6 Reagent from above. The DNA/Fugene 6 mixture is gently pipeted to mix the contents and incubated for about 15 minutes at room temperature. The complex mixture is then added to the HEK-293T/17 cells, distributing it around the well, and swirled to ensure even dispersal. The cells are returned to the incubator for 24 hrs. The transfected cells are then replated at density 2.5×10^5 in a 35 mm dish with 5 glass coverslips and grow in low serum(1%) media for 24 hrs. Coverslips with isolated cells are then transferred into chamber and calcium channel (e.g., L-type, N-type, etc.) current or other currents for counter screening are recorded from the transiently transfected HEK-293T/1 7 cells.
The whole-cell voltage clamp configuration of the patch clamp technique is employed to evaluate voltage-dependent calcium currents essentially as described by Thompson and Wong (1991) J. Physiol., 439: 671-689. To record calcium channel (e.g., L-type, N-type, etc.) currents for evaluation of inhibitory potency of compounds (steady-state concentration-response analysis), five pulses of 20-30 ms voltage steps to about +10 mV (the peak of the current voltage relationship) are delivered at five Hz every 30 second from a holding potential at −100 mV. Compound evaluations were carried out essentially as described by Sah D W and Bean B P (1994) Mol Pharmacol. 45(1):84-92. Table 3 contains IC50's for representative compounds.
In general terms: The patch-clamp technique gives a direct electrical read-out from membranes.

One may read the IC50 as the point on the concentration scale where inhibition reaches its midpoint. Regarding `Cc1ccc(-n2c(-c3ccccc3)cnc2SCc2nc3ccccc3[nH]2)cc1` [Compound 2], the IC50 in assay [1] was found to be 6.63 µM. The same measure, in the same setting: in the case of `Cc1ccc(-n2c(-c3ccc(F)cc3)cnc2SCc2nc3ccccc3[nH]2)cc1` [Compound 4] it was 5.7 µM.

Regarding `COc1ccc(OC)c(-c2cnc(SCc3nc4ccccc4[nH]3)n2-c2ccc(Cl)cc2)c1` [Compound 7], in assay [2], the 50% inhibitory concentration (IC50) came out at 0.793 µM. Same read-out and setting: the same measure for `COc1ccccc1-c1cnc(SCc2cnc(C)s2)n1-c1ccc(Cl)cc1` [Compound 8]: 0.187 µM; for `Cc1ccc(F)cc1-c1cnc(SCc2nc3ccccc3[nH]2)n1-c1ccc(Cl)cc1` [Compound 13]: 0.328 µM. As for `COc1ccc(-n2c(-c3ccc(F)cc3)cnc2SCC(=O)NCc2ccco2)cc1` [Compound 234], the concentration for half-maximal inhibition (IC50) in assay [1] is 5.4 µM.
